Consider four molecules from US7981913B2, “Isophthalates as beta-secretase inhibitors” (Bristol-Myers Squibb Company, priority 2005, dated 2011).

The IC50 is the concentration that inhibits the measured activity by half.

Some results are limits rather than exact numbers.

T1 sequence (P56817 46-501): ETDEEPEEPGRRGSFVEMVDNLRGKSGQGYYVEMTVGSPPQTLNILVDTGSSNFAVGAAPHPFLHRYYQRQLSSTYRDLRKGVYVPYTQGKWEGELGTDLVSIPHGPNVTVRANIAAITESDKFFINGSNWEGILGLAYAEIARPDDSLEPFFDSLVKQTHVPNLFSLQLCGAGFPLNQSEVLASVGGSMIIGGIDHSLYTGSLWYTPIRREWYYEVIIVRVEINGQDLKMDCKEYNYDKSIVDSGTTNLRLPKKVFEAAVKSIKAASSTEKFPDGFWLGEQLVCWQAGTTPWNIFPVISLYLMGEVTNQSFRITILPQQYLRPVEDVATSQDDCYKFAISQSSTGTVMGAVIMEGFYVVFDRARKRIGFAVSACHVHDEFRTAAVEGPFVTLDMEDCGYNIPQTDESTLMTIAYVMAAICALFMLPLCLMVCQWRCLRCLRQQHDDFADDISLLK

The assay addresses T1, BACE1 enzyme (Homo sapiens, UniProt P56817).
T1 construct: The HEK293-9B.A1 cell line, which overexpresses the BACE1 enzyme, was derived from HEK293 cells; endogenous in cells; washed 48,000 x g membrane pellet / cell homogenate
As to the kind of experiment: Radioligand displacement assay with a radiolabeled BACE inhibitor on HEK293-9B.A1 cell homogenate. Type of assay: binding. The conditions noted are these: displacement of 1 nM tritiated radioligand, HEK293-9B.A1 homogenate, pH 5.0, 1.5 hr at 25° C.; read-out: Activity Rating (based on IC50 values). The source says:
There are a number of methods by which inhibitors of the BACE enzyme can be identified experimentally. The enzyme can be obtained from membrane samples from natural tissues or cultured cells or can be expressed recombinantly in a host cell by well known methods of molecular biology. The whole enzyme or a portion thereof can be expressed, for example, in bacterial, insect or mammalian cells to obtain a catalytically active enzyme species. The enzymatic activity and/or ligand binding capability of the enzyme can be assessed within these membrane samples, or the enzyme can be purified to varying extents. As an illustrative example, the nucleic acid sequence encoding the pro and catalytic domains of human BACE can be appended on the 5′ end with an untranslated and signal sequence from the gene for acetylcholinesterase, and on the 3′ end with a sequence encoding a poly-histidine tag. This cDNA can then be expressed in Drosophila melanogaster S2 cells in which the signal and pro sequences of the transcribed/translated protein are removed by cellular proteases and the catalytic domain, appended by a C-terminal poly-histidine tag, is secreted out into the cellular medium. The enzyme can then be purified from the culture medium by nickel affinity chromatography by methods well known to those trained in the art [Mallender, W. et al., (2001) “Characterization of recombinant, soluble beta-secretase from an insect cell expression system.” Mol. Pharmacol. 59: 619-626]. Similar strategies for expressing and purifying various forms of BACE in bacterial, mammalian and other cell types would be known to one skilled in the art. A preferred method for determining the potency of a test compound in binding to the BACE enzyme is by monitoring the displacement of a suitable radioligand.
Radioligand displacement assays with a radiolabeled BACE inhibitor (WO 2004 013098, compound 3, where the methoxy group is substituted for C(^3H)3) were carried out using standard methods (Keen, M. (1999) in Receptor Binding Techniques (Walker, J. M. ed) p. 106 Humana Press, Totowa, N.J.). The HEK293-9B.A1 cell line, which overexpresses the BACE1 enzyme, was derived from HEK293 cells (Simmons, N. L. (1990) A cultured human renal epithelioid cell line responsive to vasoactive intestinal peptide. Exp. Physiol. 75:309-19.) by RAGE™ (Harrington, J. J. et al. (2001) Creation of genome-wide protein expression libraries using random activation of gene expression. Nat. Biotechnol. 19:440-5; U.S. Pat. Nos. 6,410,266 and 6,361,972). […]
A general note: Displacement assays read how much labelled ligand stays bound in the presence of the test substance.
Regarding `CCCO[C@H]1CN[C@@H]([C@@H](O)[C@H](Cc2cc(F)cc(F)c2)NC(=O)c2cc(C(=O)N3CCC[C@@H]3COC)cc(-c3ncco3)c2)C1` [Example 11, N-((1R,2S)-3-(3,5-difluorophenyl)-1-hydroxy-1-((2R,4R)-4-propoxypyrrolidin-2-yl)propan-2-yl)-3-((R)-2-(methoxymethyl)pyrrolidine-1-carbonyl)-5-(oxazol-2-yl)benzamide], the 50% inhibitory concentration (IC50) is below 0.1 µM.
For the molecule `CCCCN(C)C(=O)c1cccc(C(=O)N[C@@H](Cc2cc(F)cc(F)c2)[C@H](O)[C@H]2CC(c3ccccc3)CN2)c1` (stereo partly drawn) [Example 7, N^1-butyl-N^3-((1R,2S)-3-(3,5-difluorophenyl)-1-hydroxy-1-((2R)-4-phenylpyrrolidin-2-yl)propan-2-yl)-N^1-methylisophthalamide], the half-maximal inhibitory concentration (IC50) was in the range of 0.1 to 1 µM.
In the case of `CCCN(CCC)C(=O)c1cc(C(=O)N[C@@H](Cc2ccccc2)[C@H](O)[C@H]2C[C@@H](S(=O)(=O)CCC)CN2)cc(-c2ncco2)c1` [Example 17, N^1-((1R,2S)-1-hydroxy-3-phenyl-1-((2R,4R)-4-(propylsulfonyl)pyrrolidin-2-yl)propan-2-yl)-5-(oxazol-2-yl)-N^3,N^3-dipropylisophthalamide] it was below 0.1 µM; in that of `CCCO[C@H]1CN[C@@H]([C@@H](O)[C@H](Cc2cc(F)cc(F)c2)NC(=O)c2cc(C(=O)N(CCC)CCC)cc(-c3ncco3)c2)C1` [Example 12, N^1-((1R,2S)-3-(3,5-difluorophenyl)-1-hydroxy-1-((2R,4R)-4-propoxypyrrolidin-2-yl)propan-2-yl)-5-(oxazol-2-yl)-N^3,N^3-dipropylisophthalamide], below 0.1 µM.
